Data: patent US20160081901A1, “COMPOSITIONS AND METHODS FOR HAIR GROWTH” (WUHAN OPTICS VALLEY BRIDGEBIOMED INTERNATIONAL CORPORATION, priority 2013, published 2016)

Key:
[1] = target: T1, B2 receptor (Homo sapiens, UniProt P30411); assay: Inhibition of PG secretion by B2 receptor inhibitor HOE-140; assay type: cell-based; settings: for PG synthesis blocked by 1 μM HOE-140: PG synthesis caused by 10 μM of the compound
T1 construct: The cell strains used in the study were human primary vein endothelial cells (HPVEC) and human aortic smooth muscle cells (HASMC); endogenous in cells; host or cells: HPVEC and HASMC (human primary cells)
T1 sequence (P30411 1-391): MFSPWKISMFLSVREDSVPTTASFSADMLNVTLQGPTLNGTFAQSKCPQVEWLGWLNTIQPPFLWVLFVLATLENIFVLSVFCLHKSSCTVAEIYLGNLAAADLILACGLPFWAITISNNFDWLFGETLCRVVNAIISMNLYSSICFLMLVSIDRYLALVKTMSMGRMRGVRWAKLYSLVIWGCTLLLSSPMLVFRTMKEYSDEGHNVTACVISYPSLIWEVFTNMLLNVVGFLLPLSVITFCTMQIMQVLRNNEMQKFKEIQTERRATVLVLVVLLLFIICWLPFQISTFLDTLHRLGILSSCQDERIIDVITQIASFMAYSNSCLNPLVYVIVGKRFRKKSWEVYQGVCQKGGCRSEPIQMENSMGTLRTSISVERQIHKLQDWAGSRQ
Protocol: The detailed protocol for the elucidation of inhibited PG secretion by B2 receptor inhibitor HOE-140 was shown as follows. Two different cell lines were transferred into T-75 cell culture flask, and then the instructions of PG kit were strictly followed when cells have reached the appropriate density. Day 1. Cells were seeded in 24 well dishes with minimum medium and allowed to adhere overnight. Day 2. Cells were starved in the serum-free conditioned medium. Day 3. […] Cells were incubated at 37° C. for 1 h. The supernatant was collected after incubation for later use. Day 4. 24 well dishes were washed and then dyed for 45-90 min, and then the quantitative analysis was carried out. Therefore OD values (420 nm) of BK B2 receptor agonists were obtained and the EC50, EMAX were calculated.
Therefore we could conclude the angiotensin II type 1 receptor antagonists influence PG secretion via B2 receptor since HOE-140 acts as B2 receptor antagonist

[2] = target: T2, bradykinin (BK) B2 receptors (Homo sapiens, UniProt P30411); assay: PG secretion in cell supernatant by enzyme immunoassay (EIA), relative to 1 μM bradykinin; assay type: cell-based; settings: for PG release (%) compared with BK-1 μM (100%): 1 h, 37° C.
T2 construct: The cell strains used in the study were human primary vein endothelial cells (HPVEC) and human aortic smooth muscle cells (HASMC); endogenous in cells; host or cells: HPVEC and HASMC (human primary cells)
T2 sequence (P30411 1-391): T1 sequence (P30411 1-391)
Protocol: We studied angiotensin II receptor antagonists activating bradykinin (BK) B2 receptors to promote secretion of Prostaglandin. Losartan, candesartan, telmisartan were selected for the study described below, and bradykinin was used as control. Implantation Two cell lines were transferred into T-75 cell culture flask, and then the instructions of PG kit were strictly followed when cells have reached the appropriate density. Day 1 Cells were seeded in 24 well dishes with minimum medium and allowed to adhere overnight. Day 2 Cells were starved in the serum-free conditioned medium. […] The supernatant was collected after incubation for later use. Day 4 24 well dishes were washed and then dyed for 45-90 min, and then the OD value was measured for analysis. Therefore OD values of BK B2 receptor agonists were obtained and the EC50, EMAX were calculated. The cell strains used in the study were human primary vein endothelial cells (HPVEC) and human aortic smooth muscle cells (HASMC).
In order to detect endogenous prostaglandin, enzyme immunoassay (EIA) was used to determine the amount of prostaglandin and subtypes thereof in the cell supernatant described above.

[3] = longest of all commercially available ARBs; cited from earlier work
[4] = target: T1, B2 receptor; assay: PG subtype secretion (EIA) induced by Candesartan in HPVEC and HASMC; assay type: cell-based; settings: for PGE2 (%) / PGF-2a (%): 10 μM Candesartan
Source text: These percentage values above were all calibrated with respect to bradykinin.

[5] = 10 μM, calibrated with respect to bradykinin
[6] = HASMC, calibrated with respect to bradykinin
[7] = HPVEC, calibrated with respect to bradykinin

PG relaease (%) compared with BK-1 μM (100%) ([1]; 10 μM + 1 μM HOE-140) [%] | PG relaease (%) compared with BK-1 μM (100%) ([1]; 10 μM, without HOE-140) [%] | PG synthesis blocked by 1 μM HOE-140 [1] [%] | PG release (%) compared with BK-1 μM (100%) ([2]; 1 μM) [%] | PG release (%) compared with BK-1 μM (100%) ([2]; 3 μM) [%] | PG release (%) compared with BK-1 μM (100%) ([2]; 10 μM) [%] | effect relative to the effect of 1 μM of bradykinin (PG secretion) ([2]; 30 μM) [%] | PG release (%) compared with BK-1 μM (100%) ([2]; 30 μM) [%] | PG release (%) compared with BK-1 μM (100%) ([2]; 30 nm) [%] | PG release (%) compared with BK-1 μM (100%) ([2]; 100 nm) [%] | PG release (%) compared with BK-1 μM (100%) ([2]; 300 nm) [%] | effect relative to the effect of 1 μM of bradykinin (PG secretion) ([2]; 10 μM) [%] | Prostaglandin D secretion ([4]; 10 μM) | share of PG secretion that was Prostaglandin E2 [4, 5] [%] | share of PG secretion that was Prostaglandin F-2a [4, 5] | PGE2 (%) [4, 6] [%] | PGF-2a (%) [4, 6] [%] | PGE2 (%) [4, 7] [%] | PGF-2a (%) [4, 7] [%] | SMILES | half-life [3]
5 ± 4.45 | 23.18 ± 3.65 | 80 | 8.16 ± 2.43 | 12.06 ± 4.12 | 23.18 ± 3.65 | ~60 | 58.17 ± 6.32 | 0.18 ± 0.74 | 2.96 ± 2.22 | 4.69 ± 1.21 |  |  |  |  |  |  |  |  | CCCCc1nc(Cl)c(CO)n1Cc1ccc(-c2ccccc2-c2nn[nH]n2)cc1 [Losartan, (2-butyl-4-chloro-1-{[2′-(1H-tetrazol-5-yl)biphenyl-4-yl]methyl}-1H-imidazol-5-yl)methanol] | 
3 ± 2.03 | 14.56 ± 2.42 | 80 | 9.01 ± 1.35 | 13.56 ± 1.56 | 14.56 ± 2.42 | ~25 | 25.46 ± 3.48 | 4.48 ± 1.54 | 4.69 ± 1.78 | 6.46 ± 3.1 |  |  |  |  |  |  |  |  | CCCc1nc2c(C)cc(-c3nc4ccccc4n3C)cc2n1Cc1ccc(-c2ccccc2C(=O)O)cc1 [Telmisartan, 2-(4-{[4-methyl-6-(1-methyl-1H-1,3-benzodiazol-2-yl)-2-propyl-1H-1,3-benzodiazol-1-yl]methyl}phenyl)benzoic acid] | about 24 h
6 ± 3.12 | 46.19 ± 5.65 | 85 | 16.51 ± 2.02 | 26.91 ± 4.13 | 46.19 ± 5.65 | ~90 | 86.83 ± 7.21 | 6.21 ± 2.3 | 11.27 ± 2.74 | 12.91 ± 3.08 | ~50 | no Prostaglandin D detected | 30 | roughly 6% | 37.13 ± 9.85 | 6.21 ± 2.56 | 32.54 ± 6.93 | 5.47 ± 3.32 | CCOc1nc2cccc(C(=O)O)c2n1Cc1ccc(-c2ccccc2-c2nn[nH]n2)cc1 [Candesartan, 2-ethoxy-1-({4-[2-(2H-1,2,3,4-tetrazol-5-yl)phenyl]phenyl}methyl)-1H-1,3-benzodiazole-7-carboxylic acid] | 
